Measured values as given in ChEMBL document CHEMBL1681717, “Design and synthesis of a novel, orally active, brain penetrant, tri-substituted thiophene based JNK inhibitor” (Bioorg Med Chem Lett, 2011).

What was measured:
[1] = target: Serine/threonine-protein kinase PLK2 (Homo sapiens) (UniProt Q9NYY3); experiment: Inhibition of PLK2 at 10 uM
[2] = target: Leucine-rich repeat serine/threonine-protein kinase 2 (Homo sapiens) (UniProt Q5S007); experiment: Inhibition of LRRK2 at 10 uM
[3] = target: Mitogen-activated protein kinase 9 (Homo sapiens, UniProt P45984); experiment: Inhibition of recombinant JNK2 after 60 mins by TR-FRET assay
Mus musculus = experiment: Inhibition of kainic acid-induced JNK activation in FVB mouse hippocampus assessed as reduction of phosphorylated c-jun level at 300 mg/kg, po administered 1 hr before kainic acid challenge measured after 4 hrs; assay type: functional
[4] = target: Dual specificity protein kinase CLK1 (Homo sapiens) (UniProt P49759); experiment: Inhibition of CLK1 at 10 uM
[5] = target: Protein kinase C beta type (Homo sapiens) (UniProt P05771); experiment: Inhibition of PRKCB1 at 10 uM
[6] = target: T1, Mitogen-activated protein kinase 10 (Homo sapiens, UniProt P53779); settings: 10 uM
T1 sequence (P53779 whole entry): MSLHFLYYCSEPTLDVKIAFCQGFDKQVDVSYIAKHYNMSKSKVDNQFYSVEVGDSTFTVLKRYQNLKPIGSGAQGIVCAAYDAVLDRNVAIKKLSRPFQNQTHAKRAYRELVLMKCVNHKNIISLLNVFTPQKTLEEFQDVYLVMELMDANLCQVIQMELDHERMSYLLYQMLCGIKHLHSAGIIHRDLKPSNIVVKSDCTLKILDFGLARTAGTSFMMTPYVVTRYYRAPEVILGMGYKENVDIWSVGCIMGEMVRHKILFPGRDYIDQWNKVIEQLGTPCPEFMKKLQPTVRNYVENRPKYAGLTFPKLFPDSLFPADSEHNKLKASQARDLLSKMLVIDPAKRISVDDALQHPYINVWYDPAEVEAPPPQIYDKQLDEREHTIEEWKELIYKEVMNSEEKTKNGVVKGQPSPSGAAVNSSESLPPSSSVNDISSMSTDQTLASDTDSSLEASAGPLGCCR
Description: Inhibition of MAPK10 at 10 uM

[7] = target: Tyrosine-protein kinase Lck (Homo sapiens) (UniProt P06239); experiment: Inhibition of LCK at 10 uM
[8] = tested on: RAF proto-oncogene serine/threonine-protein kinase (Homo sapiens), P04049 [Y340D,Y341D]; experiment: Inhibition of RAF1 Y340D, Y341D mutant at 10 uM
[9] = target: cAMP-dependent protein kinase catalytic subunit alpha (Homo sapiens) (UniProt P17612); experiment: Inhibition of PRKACA at 10 uM
[10] = target: Serine/threonine-protein kinase 16 (Homo sapiens) (UniProt O75716); experiment: Inhibition of STK16 at 10 uM
[11] = target: Calcium/calmodulin-dependent protein kinase type II subunit alpha (Homo sapiens) (UniProt Q9UQM7); experiment: Inhibition of CAMK2A at 10 uM
[12] = target: Serine/threonine-protein kinase PLK1 (Homo sapiens) (UniProt P53350); experiment: Inhibition of PLK1 at 10 uM
[13] = target: Mitogen-activated protein kinase 8 (Homo sapiens, UniProt P45983); experiment: Inhibition of recombinant JNK1 after 60 mins by TR-FRET assay
[14] = target: Platelet-derived growth factor receptor alpha (Homo sapiens) (UniProt P16234); experiment: Inhibition of PDGFRA at 10 uM
Chain of Platelet-derived growth factor receptor alpha (Homo sapiens) (P16234 whole entry): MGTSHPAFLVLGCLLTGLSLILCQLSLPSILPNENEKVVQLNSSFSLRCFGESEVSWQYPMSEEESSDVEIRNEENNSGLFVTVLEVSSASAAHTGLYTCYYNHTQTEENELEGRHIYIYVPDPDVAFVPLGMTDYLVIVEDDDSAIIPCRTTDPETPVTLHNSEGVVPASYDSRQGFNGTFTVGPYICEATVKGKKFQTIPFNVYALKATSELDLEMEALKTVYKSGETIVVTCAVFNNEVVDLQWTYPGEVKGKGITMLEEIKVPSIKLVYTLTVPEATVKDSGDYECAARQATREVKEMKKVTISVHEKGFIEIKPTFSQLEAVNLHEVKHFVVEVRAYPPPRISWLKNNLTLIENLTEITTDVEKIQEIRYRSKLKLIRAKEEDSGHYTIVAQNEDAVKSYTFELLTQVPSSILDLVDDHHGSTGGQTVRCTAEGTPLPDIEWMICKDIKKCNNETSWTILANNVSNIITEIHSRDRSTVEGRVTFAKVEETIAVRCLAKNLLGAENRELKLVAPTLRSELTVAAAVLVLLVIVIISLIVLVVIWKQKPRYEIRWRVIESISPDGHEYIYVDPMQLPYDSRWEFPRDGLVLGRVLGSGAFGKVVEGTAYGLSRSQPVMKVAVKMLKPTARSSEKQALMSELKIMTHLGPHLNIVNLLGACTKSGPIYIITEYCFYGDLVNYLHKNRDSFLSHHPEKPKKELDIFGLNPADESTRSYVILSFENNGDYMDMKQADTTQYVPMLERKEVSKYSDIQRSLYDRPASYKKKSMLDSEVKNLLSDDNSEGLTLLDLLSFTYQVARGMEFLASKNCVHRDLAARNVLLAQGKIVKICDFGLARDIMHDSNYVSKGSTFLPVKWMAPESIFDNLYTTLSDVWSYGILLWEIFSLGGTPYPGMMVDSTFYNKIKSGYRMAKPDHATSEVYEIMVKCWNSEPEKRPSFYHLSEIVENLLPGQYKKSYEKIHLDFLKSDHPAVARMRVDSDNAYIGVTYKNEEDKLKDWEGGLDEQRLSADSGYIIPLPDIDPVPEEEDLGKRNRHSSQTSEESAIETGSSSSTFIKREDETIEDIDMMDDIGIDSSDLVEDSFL

[15] = target: Serine/threonine-protein kinase PLK3 (Homo sapiens) (UniProt Q9H4B4); experiment: Inhibition of PLK3 at 10 uM
Chain of Serine/threonine-protein kinase PLK3 (Homo sapiens) (Q9H4B4 whole entry, looked up): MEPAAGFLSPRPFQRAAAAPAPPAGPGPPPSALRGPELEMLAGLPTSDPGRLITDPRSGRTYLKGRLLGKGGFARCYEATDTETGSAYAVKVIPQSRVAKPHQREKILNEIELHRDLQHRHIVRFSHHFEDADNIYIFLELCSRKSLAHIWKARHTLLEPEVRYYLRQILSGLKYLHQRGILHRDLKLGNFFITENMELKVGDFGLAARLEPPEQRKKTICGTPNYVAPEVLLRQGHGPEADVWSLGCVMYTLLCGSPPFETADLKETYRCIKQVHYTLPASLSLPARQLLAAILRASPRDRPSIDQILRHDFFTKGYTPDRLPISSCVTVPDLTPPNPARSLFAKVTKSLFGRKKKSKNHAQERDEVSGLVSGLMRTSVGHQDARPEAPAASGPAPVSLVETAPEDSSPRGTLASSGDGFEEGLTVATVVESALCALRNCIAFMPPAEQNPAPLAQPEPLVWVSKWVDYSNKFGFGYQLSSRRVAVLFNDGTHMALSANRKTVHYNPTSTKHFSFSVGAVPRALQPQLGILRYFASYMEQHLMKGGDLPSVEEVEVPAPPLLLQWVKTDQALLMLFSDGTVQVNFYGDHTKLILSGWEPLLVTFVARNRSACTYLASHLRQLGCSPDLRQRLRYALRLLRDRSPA

[16] = target: Cyclin-dependent kinase 1/cyclin B (Homo sapiens) (UniProt P06493+P14635+Q8WWL7+O95067); experiment: Inhibition of CDK1/cyclin B at 10 uM; assay type: protein-complex assay
[17] = target: Tyrosine-protein kinase ABL1 (Homo sapiens) (UniProt P00519); experiment: Inhibition of ABL1 at 10 uM
[18] = target: Serine/threonine-protein kinase MARK2 (Homo sapiens) (UniProt Q7KZI7); experiment: Inhibition of MARK2 at 10 uM
[19] = Oxidative metabolic stability in human liver microsomes assessed as compound remaining at 5 uM after 120 mins; assay type: ADME, Microsome; settings: read-out: Stability
[20] = target: Protein-tyrosine kinase 2-beta (Homo sapiens) (UniProt Q14289); experiment: Inhibition of PTK2B at 10 uM
[21] = target: Cyclin-dependent kinase 5/CDK5 activator 1 (Homo sapiens) (UniProt Q00535+Q15078); experiment: Inhibition of CDK5/p25 at 10 uM; assay type: protein-complex assay
[22] = target: T1, Mitogen-activated protein kinase 10; experiment: Inhibition of recombinant JNK3 after 60 mins by TR-FRET assay
[23] = target: Receptor-interacting serine/threonine-protein kinase 2 (Homo sapiens) (UniProt O43353); experiment: Inhibition of RIPK2 at 10 uM
[24] = target: Mitogen-activated protein kinase 14 (Homo sapiens, UniProt Q16539); experiment: Inhibition of recombinant p38alpha after 60 mins by TR-FRET assay
[25] = target: Receptor tyrosine-protein kinase erbB-4 (Homo sapiens) (UniProt Q15303); experiment: Inhibition of ERBB4 at 10 uM
Chain of Receptor tyrosine-protein kinase erbB-4 (Homo sapiens) (Q15303 whole entry): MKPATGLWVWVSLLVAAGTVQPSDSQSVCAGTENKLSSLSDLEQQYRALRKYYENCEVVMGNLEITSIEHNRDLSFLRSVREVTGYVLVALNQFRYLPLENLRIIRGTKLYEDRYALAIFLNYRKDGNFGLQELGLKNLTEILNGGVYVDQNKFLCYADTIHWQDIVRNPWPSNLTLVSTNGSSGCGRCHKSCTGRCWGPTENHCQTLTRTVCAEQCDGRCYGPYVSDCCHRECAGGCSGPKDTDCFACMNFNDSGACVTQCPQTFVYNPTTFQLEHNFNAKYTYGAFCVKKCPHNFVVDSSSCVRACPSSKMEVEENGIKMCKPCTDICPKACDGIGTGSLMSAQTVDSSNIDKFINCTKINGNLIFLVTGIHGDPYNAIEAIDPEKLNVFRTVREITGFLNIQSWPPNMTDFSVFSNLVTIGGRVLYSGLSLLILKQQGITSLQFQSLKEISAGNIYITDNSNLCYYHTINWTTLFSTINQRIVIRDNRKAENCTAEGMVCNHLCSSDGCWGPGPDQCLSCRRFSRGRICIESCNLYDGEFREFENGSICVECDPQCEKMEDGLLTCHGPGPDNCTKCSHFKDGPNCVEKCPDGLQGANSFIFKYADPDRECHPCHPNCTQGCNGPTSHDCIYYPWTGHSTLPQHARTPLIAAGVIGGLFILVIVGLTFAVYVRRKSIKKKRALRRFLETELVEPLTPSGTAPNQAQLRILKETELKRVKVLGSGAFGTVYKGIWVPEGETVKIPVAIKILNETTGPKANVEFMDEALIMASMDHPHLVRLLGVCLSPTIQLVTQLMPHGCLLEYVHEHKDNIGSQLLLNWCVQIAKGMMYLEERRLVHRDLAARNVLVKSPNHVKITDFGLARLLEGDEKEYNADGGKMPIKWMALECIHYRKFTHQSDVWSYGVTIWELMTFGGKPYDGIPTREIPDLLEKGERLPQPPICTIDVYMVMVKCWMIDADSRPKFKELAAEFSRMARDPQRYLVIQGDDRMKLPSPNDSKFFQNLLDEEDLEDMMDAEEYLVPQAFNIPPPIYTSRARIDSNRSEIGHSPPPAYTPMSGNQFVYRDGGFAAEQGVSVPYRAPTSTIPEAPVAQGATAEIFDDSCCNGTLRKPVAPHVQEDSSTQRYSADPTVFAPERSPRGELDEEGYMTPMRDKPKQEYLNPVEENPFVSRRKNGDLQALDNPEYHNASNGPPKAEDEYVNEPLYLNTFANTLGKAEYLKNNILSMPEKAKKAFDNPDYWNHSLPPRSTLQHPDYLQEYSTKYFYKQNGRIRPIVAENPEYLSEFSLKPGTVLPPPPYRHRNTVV

[26] = target: Serine/threonine-protein kinase PAK 4 (Homo sapiens) (UniProt O96013); experiment: Inhibition of PAK4 at 10 uM
[27] = target: Serine/threonine-protein kinase Chk1 (Homo sapiens) (UniProt O14757); experiment: Inhibition of CHEK1 at 10 uM
[28] = Oxidative metabolic stability in mouse liver microsomes assessed as compound remaining at 5 uM after 120 mins; assay type: ADME, Microsome; settings: read-out: Stability
[29] = target: Rho-associated protein kinase 2 (Homo sapiens) (UniProt O75116); experiment: Inhibition of ROCK2 at 10 uM
[30] = target: Dual specificity protein kinase TTK (Homo sapiens) (UniProt P33981); experiment: Inhibition of TTK at 10 uM
[31] = target: Serine/threonine-protein kinase 3 (Homo sapiens) (UniProt Q13188); experiment: Inhibition of STK3 at 10 uM
[32] = target: Tyrosine-protein kinase JAK1 (Homo sapiens) (UniProt P23458); experiment: Inhibition of JAK1 at 10 uM
[33] = target: Glycogen synthase kinase-3 beta (Homo sapiens) (UniProt P49841); experiment: Inhibition of GSK3B at 10 uM
[34] = target: PI3-kinase p110-alpha/p85-alpha (Homo sapiens) (UniProt P27986+P42336); experiment: Inhibition of PIK3CA/PIK3R1 at 10 uM; assay type: protein-complex assay
[35] = target: Receptor-type tyrosine-protein kinase FLT3 (Homo sapiens) (UniProt P36888); experiment: Inhibition of FLT3 at 10 uM
MDR1 [36] = experiment: Apparent permeability of the compound from apical to basolateral direction in MDCK2 cells expressing MDR1; assay type: ADME, cell-based, Canis lupus familiaris, MDCK-II; settings: dog, MDCK-MDR1
[37] = target: Insulin receptor (Homo sapiens) (UniProt P06213); experiment: Inhibition of INSR at 10 uM
[38] = target: Tyrosine-protein kinase SYK (Homo sapiens) (UniProt P43405); experiment: Inhibition of SYK at 10 uM
[39] = target: Macrophage colony-stimulating factor 1 receptor (Homo sapiens) (UniProt P07333); experiment: Inhibition of CSF1R at 10 uM
Chain of Macrophage colony-stimulating factor 1 receptor (Homo sapiens) (P07333 whole entry): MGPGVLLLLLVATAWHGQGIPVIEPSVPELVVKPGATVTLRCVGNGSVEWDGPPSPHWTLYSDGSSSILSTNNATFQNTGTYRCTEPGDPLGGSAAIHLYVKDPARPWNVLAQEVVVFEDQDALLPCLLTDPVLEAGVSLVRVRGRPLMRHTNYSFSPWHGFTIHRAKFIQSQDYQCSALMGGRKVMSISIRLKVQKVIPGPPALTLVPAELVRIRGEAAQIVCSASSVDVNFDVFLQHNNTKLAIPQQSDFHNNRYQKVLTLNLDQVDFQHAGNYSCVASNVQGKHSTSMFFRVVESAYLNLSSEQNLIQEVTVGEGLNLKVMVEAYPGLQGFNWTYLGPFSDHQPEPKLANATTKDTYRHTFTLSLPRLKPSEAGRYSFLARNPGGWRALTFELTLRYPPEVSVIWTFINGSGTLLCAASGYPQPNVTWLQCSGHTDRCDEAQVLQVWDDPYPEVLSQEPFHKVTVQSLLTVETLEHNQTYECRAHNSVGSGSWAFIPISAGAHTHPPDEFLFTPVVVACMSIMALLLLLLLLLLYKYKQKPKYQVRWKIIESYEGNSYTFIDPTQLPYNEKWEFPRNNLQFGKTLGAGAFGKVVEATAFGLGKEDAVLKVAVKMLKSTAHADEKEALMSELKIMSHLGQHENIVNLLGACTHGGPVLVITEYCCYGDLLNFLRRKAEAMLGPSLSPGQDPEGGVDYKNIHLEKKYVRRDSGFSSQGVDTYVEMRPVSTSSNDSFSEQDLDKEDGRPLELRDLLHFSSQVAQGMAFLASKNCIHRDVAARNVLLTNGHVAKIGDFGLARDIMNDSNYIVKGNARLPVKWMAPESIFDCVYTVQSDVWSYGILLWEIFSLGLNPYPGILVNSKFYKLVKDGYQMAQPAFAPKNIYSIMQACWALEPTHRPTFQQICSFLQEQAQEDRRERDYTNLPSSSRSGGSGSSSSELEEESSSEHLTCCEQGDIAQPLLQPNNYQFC

MDR1 [40] = experiment: Efflux ratio of permeability from basolateral to apical side over apical to basolateral side in MDCK2 cells expressing MDR1; assay type: ADME, cell-based, Canis lupus familiaris, MDCK-II; settings: dog, MDCK-MDR1
[41] = target: Aurora kinase A (Homo sapiens) (UniProt O14965); experiment: Inhibition of Aurora A at 10 uM
[42] = target: Dual specificity tyrosine-phosphorylation-regulated kinase 1B (Homo sapiens) (UniProt Q9Y463); experiment: Inhibition of DYRK1B at 10 uM
[43] = target: Proto-oncogene tyrosine-protein kinase receptor Ret (Homo sapiens) (UniProt P07949); experiment: Inhibition of RET at 10 uM
[44] = target: T2, Mitogen-activated protein kinase 1 (Homo sapiens, UniProt P28482); experiment: Inhibition of recombinant ERK2 after 60 mins by TR-FRET assay
T2 sequence (P28482 whole entry): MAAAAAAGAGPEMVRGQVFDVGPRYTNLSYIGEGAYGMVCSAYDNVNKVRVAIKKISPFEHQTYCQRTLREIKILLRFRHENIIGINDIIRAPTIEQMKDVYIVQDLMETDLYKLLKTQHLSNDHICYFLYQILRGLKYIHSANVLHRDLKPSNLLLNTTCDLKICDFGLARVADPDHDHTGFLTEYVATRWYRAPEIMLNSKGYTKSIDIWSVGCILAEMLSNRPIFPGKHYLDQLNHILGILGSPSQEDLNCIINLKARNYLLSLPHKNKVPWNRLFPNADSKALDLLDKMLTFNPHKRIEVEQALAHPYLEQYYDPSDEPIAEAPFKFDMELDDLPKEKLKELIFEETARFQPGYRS

[45] = target: T2, Mitogen-activated protein kinase 1; experiment: Inhibition of MAPK1 at 10 uM
[46] = target: Cyclin-dependent kinase 2/cyclin A (Homo sapiens) (UniProt P24941+P20248+P78396); experiment: Inhibition of CDK2/cyclin A at 10 uM; assay type: protein-complex assay
[47] = target: RAC-alpha serine/threonine-protein kinase (Homo sapiens) (UniProt P31749); experiment: Inhibition of AKT1 at 10 uM

O=C(Cc1cccc2cnccc12)Nc1scc(Cl)c1-c1ncn[nH]1
inhibition [1]: 1% | inhibition [2]: 15% | IC50 [3]: 43 nM | inhibition in vivo at 300 mg/kg (Mus musculus): 51% | inhibition [4]: 7% | inhibition [5]: 3% | inhibition [6]: 96% | inhibition [7]: 11% | inhibition [8]: 19% | inhibition [9]: 3% | inhibition [10]: 29% | inhibition [11]: 6% | inhibition [12]: 5% | IC50 [13]: 14 nM | inhibition [14]: 2% | inhibition [15]: -1% | inhibition [16]: 14% | inhibition [17]: 2% | inhibition [18]: 9% | remaining at 2 h, 5 µM [19]: 50% | inhibition [20]: -5% | inhibition [21]: 19% | IC50 [22]: 11 nM | inhibition [23]: 13% | IC50 [24]: > 50 µM | inhibition [25]: -1% | inhibition [26]: 1% | inhibition [27]: 5% | remaining at 2 h, 5 µM [28]: 29% | inhibition [29]: 9% | inhibition [30]: > 50% | inhibition [31]: 3% | inhibition [32]: 1% | inhibition [33]: 25% | inhibition [34]: 13% | inhibition [35]: 12% | Papp A→B (MDR1 [36]): 27 ×10⁻⁶ cm/s | inhibition [37]: -2% | inhibition [38]: 19% | inhibition [39]: 5% | efflux ratio (MDR1 [40]): 1.6 | inhibition [41]: 31% | inhibition [42]: 29% | inhibition [43]: 16% | IC50 [44]: > 50 µM | inhibition [45]: 3% | inhibition [46]: 19% | inhibition [47]: 4%
